This is an account of results in patent publication US8568762B2, “Methods for modifying the surface of an implant to provide said surface with calcium” (Biotechnology Institute, I Mas D, S.L., priority 2010, dated 2013).

In data set [1] the test system is blood plasma. As to the kind of experiment: Test 4a: coagulation as a function of the volume concentration of calcium (absorbance 450 nm). In kind it is biochemical, human. The note with it: without surfaces; calcium in plasma between 2.5 and 45.6 mM. The method, then: Blood plasma was prepared by extracting blood from three healthy patients. A technique similar to the one described in patent EP1066838B1 was applied to obtain a Plasma Rich in Growth Factors (PRGF): the blood was centrifuged for eight minutes at 460 G; the column of plasma was then separated from the red globules and white globules by manual pipetting (unlike the protocol described in EP1066838B1, in this case, due to the criteria of volume for carrying out the experiments, the entire plasma column was selected, not merely the part richer in platelets). Both the red globules and the white globules were discarded.
For the purpose of determining the ranges of concentration of calcium ions in plasma at which coagulation is initiated, 10 μl of CaCl2.EtOH were placed in concentrations of between 28 and 2000 mM in the bottom of a multi-well plate comprising 96 wells. […] Absorbance was measured immediately in the manner described hereafter.
Immediately after the tubes were filled, absorbance (optical density) was measured with a spectrophotometer at a wavelength of 450 nm. […]
This gradual cross-linking gradually blocks the passage of the reader beam, the absorbance therefore increasing. […] It is at this point that the absorbance (optical density) values are collated so that comparisons can be made between the various samples.

The conditions of data set [2]: ambient temperature; cited from earlier work.
Data set [3] has as its system blood plasma. The experiment in a line: Test 4b: coagulation in the presence of surfaces with or without calcium (titanium tubes, absorbance 450 nm). In kind it is biochemical, human. To be noted: surfaces with no calcium; 50 mM NaOH or 0.9 wt. % NaCl treatment, not dried. The method, then: Blood plasma was prepared by extracting blood from three healthy patients. A technique similar to the one described in patent EP1066838B1 was applied to obtain a Plasma Rich in Growth Factors (PRGF): the blood was centrifuged for eight minutes at 460 G; the column of plasma was then separated from the red globules and white globules by manual pipetting (unlike the protocol described in EP1066838B1, in this case, due to the criteria of volume for carrying out the experiments, the entire plasma column was selected, not merely the part richer in platelets). Both the red globules and the white globules were discarded. First of all, the surfaces were prepared. For the study of the coagulation, in which the excess surface calcium was to be measured, hollow tubes were used to enable the reader beam to move longitudinally. […] They were ultrasound-washed with Triton X-100, acetone and ethanol, for 20 minutes. Eight tubes were used per concentration. The solutions were prepared. […] Immediately after the tubes were filled, absorbance (optical density) was measured with a spectrophotometer at a wavelength of 450 nm. […] This gradual cross-linking gradually blocks the passage of the reader beam, the absorbance therefore increasing. […] It is at this point that the absorbance (optical density) values are collated so that comparisons can be made between the various samples.

With `[Ca+2].[Cl-].[Cl-]` [CaCl2, calcium chloride], in data set [1], the “final degree of coagulation in volume, normalized with respect to the positive control” value is reported as “sometimes even greater than that of the positive control”. In addition, the solubility in water in data set [2] is listed as > 60 g/100 mL.
As for `[Cl-].[Na+]` [NaCl, sodium chloride], the “degree of coagulation inside titanium tubes normalized to positive control” value in data set [3] is listed as “lack of coagulation is evident”.
Still for that read-out and setting: next, `[Na+].[OH-]` [NaOH, sodium hydroxide]: “lack of coagulation is evident”.
